Assays:
K562 [1] = experiment: Survival of human K562 cells at 0.1 uM under deem light after 96 hrs by MTT assay relative to control; type: functional; details: K562, 96 h, read-out: Survival
[2] = Survival of human MDA-MB cells at 100 uM under deem light after 96 hrs by MTT assay relative to control; type: functional; details: read-out: Survival
NCI-H69 [3] = experiment: Cytotoxicity against human H69 cells under deem light after 96 hrs by MTT assay; type: functional, cell-based; details: NCI-H69, 96 h
SiHa [4] = experiment: Survival of human SIHA cells at 10 uM under deem light after 96 hrs by MTT assay relative to control; type: functional; details: read-out: Survival
SiHa [5] = experiment: Cytotoxicity against human SIHA cells under deem light after 96 hrs by MTT assay; type: functional, cell-based
[6] = Photohemolysis in human RBC in absence of light; type: ADME, cell-based; details: erythrocyte
Raji [7] = experiment: Survival of human Raji cells at 0.01 uM under deem light after 96 hrs by MTT assay relative to control; type: functional; details: read-out: Survival
[8] = Survival of human H209 cells at 0.01 uM under deem light after 96 hrs by MTT assay relative to control; type: functional; details: NCI-H209, 96 h, read-out: Survival
Raji [9] = experiment: Survival of human Raji cells at 0.1 uM under deem light after 96 hrs by MTT assay relative to control; type: functional; details: read-out: Survival
Raji [10] = experiment: Survival of human Raji cells at 100 uM under deem light after 96 hrs by MTT assay relative to control; type: functional; details: read-out: Survival
K562 [11] = experiment: Survival of human K562 cells at 100 uM under deem light after 96 hrs by MTT assay relative to control; type: functional; details: K562, 96 h, read-out: Survival
[12] = Survival of human H209 cells at 100 uM under deem light after 96 hrs by MTT assay relative to control; type: functional; details: NCI-H209, 96 h, read-out: Survival
Raji [13] = experiment: Survival of human Raji cells at 10 uM under deem light after 96 hrs by MTT assay relative to control; type: functional; details: read-out: Survival
HeLa [14] = experiment: Cytotoxicity against human HeLa cells under deem light after 96 hrs by MTT assay; type: functional, cell-based
HeLa [15] = experiment: Survival of human HeLa cells at 0.01 uM under deem light after 96 hrs by MTT assay relative to control; type: functional; details: read-out: Survival
SiHa [16] = experiment: Survival of human SIHA cells at 50 uM under deem light after 96 hrs by MTT assay relative to control; type: functional; details: read-out: Survival
NCI-H69 [17] = experiment: Survival of human H69 cells at 10 uM under deem light after 96 hrs by MTT assay relative to control; type: functional; details: NCI-H69, 96 h, read-out: Survival
[18] = Survival of human MDA-MB cells at 50 uM under deem light after 96 hrs by MTT assay relative to control; type: functional; details: read-out: Survival
[19] = Survival of human MDA-MB cells at 0.01 uM under deem light after 96 hrs by MTT assay relative to control; type: functional; details: read-out: Survival
K562 [20] = experiment: Survival of human K562 cells at 10 uM under deem light after 96 hrs by MTT assay relative to control; type: functional; details: K562, 96 h, read-out: Survival
K562 [21] = experiment: Survival of human K562 cells at 50 uM under deem light after 96 hrs by MTT assay relative to control; type: functional; details: K562, 96 h, read-out: Survival
[22] = Survival of human 2780.9S cells at 50 uM under deem light after 96 hrs by MTT assay relative to control; type: functional; details: read-out: Survival
K562 [23] = experiment: Survival of human K562 cells at 0.01 uM under deem light after 96 hrs by MTT assay relative to control; type: functional; details: K562, 96 h, read-out: Survival
[24] = Survival of human 2780.9S cells at 10 uM under deem light after 96 hrs by MTT assay relative to control; type: functional; details: read-out: Survival
[25] = Cytotoxicity against human MDA-MB cells under deem light after 96 hrs by MTT assay; type: functional, cell-based
[26] = Survival of human H209 cells at 0.1 uM under deem light after 96 hrs by MTT assay relative to control; type: functional; details: NCI-H209, 96 h, read-out: Survival
Raji [27] = experiment: Survival of human Raji cells at 50 uM under deem light after 96 hrs by MTT assay relative to control; type: functional; details: read-out: Survival
[28] = Survival of human MDA-MB cells at 10 uM under deem light after 96 hrs by MTT assay relative to control; type: functional; details: read-out: Survival
NCI-H69 [29] = experiment: Survival of human H69 cells at 0.1 uM under deem light after 96 hrs by MTT assay relative to control; type: functional; details: NCI-H69, 96 h, read-out: Survival
NCI-H69 [30] = experiment: Survival of human H69 cells at 0.01 uM under deem light after 96 hrs by MTT assay relative to control; type: functional; details: NCI-H69, 96 h, read-out: Survival
NCI-H69 [31] = experiment: Survival of human H69 cells at 100 uM under deem light after 96 hrs by MTT assay relative to control; type: functional; details: NCI-H69, 96 h, read-out: Survival
K562 [32] = experiment: Cytotoxicity against human K562 cells under deem light after 96 hrs by MTT assay; type: functional, cell-based; details: K562, 96 h
HeLa [33] = experiment: Survival of human HeLa cells at 10 uM under deem light after 96 hrs by MTT assay relative to control; type: functional; details: read-out: Survival
NCI-H69 [34] = experiment: Survival of human H69 cells at 50 uM under deem light after 96 hrs by MTT assay relative to control; type: functional; details: NCI-H69, 96 h, read-out: Survival
SiHa [35] = experiment: Survival of human SIHA cells at 0.1 uM under deem light after 96 hrs by MTT assay relative to control; type: functional; details: read-out: Survival
Daudi = experiment: Cytotoxicity against human Daudi cells under deem light after 96 hrs by MTT assay; type: functional, cell-based
HeLa [36] = experiment: Survival of human HeLa cells at 0.1 uM under deem light after 96 hrs by MTT assay relative to control; type: functional; details: read-out: Survival
[37] = Survival of human 2780.9S cells at 0.01 uM under deem light after 96 hrs by MTT assay relative to control; type: functional; details: read-out: Survival
[38] = Survival of human H209 cells at 50 uM under deem light after 96 hrs by MTT assay relative to control; type: functional; details: NCI-H209, 96 h, read-out: Survival
HeLa [39] = experiment: Survival of human HeLa cells at 50 uM under deem light after 96 hrs by MTT assay relative to control; type: functional; details: read-out: Survival
Raji [40] = experiment: Cytotoxicity against human Raji cells under deem light after 96 hrs by MTT assay; type: functional, cell-based
[41] = Survival of human H209 cells at 10 uM under deem light after 96 hrs by MTT assay relative to control; type: functional; details: NCI-H209, 96 h, read-out: Survival
[42] = Cytotoxicity against human 2780.9S cells under deem light after 96 hrs by MTT assay; type: functional, cell-based
[43] = Survival of human 2780.9S cells at 100 uM under deem light after 96 hrs by MTT assay relative to control; type: functional; details: read-out: Survival
HeLa [44] = experiment: Survival of human HeLa cells at 100 uM under deem light after 96 hrs by MTT assay relative to control; type: functional; details: read-out: Survival
[45] = Survival of human MDA-MB cells at 0.1 uM under deem light after 96 hrs by MTT assay relative to control; type: functional; details: read-out: Survival
[46] = Survival of human 2780.9S cells at 0.1 uM under deem light after 96 hrs by MTT assay relative to control; type: functional; details: read-out: Survival

## COc1cccc2c1C(=O)c1c(O)c3c(c(O)c1C2=O)C[C@@](O)(C(=O)CO)C[C@@H]3O[C@H]1C[C@H](N)[C@H](O)[C@H](C)O1 [DOXORUBICIN]
K562 [1]
  viability at 0.1 µM: 100%
[2]
  viability at 100 µM: 5%
NCI-H69 [3]
  IC50: 3000 nM
SiHa [4]
  viability at 10 µM: 4.4%
SiHa [5]
  IC50: 500 nM
[6]
  Activity: Non-toxic
Raji [7]
  viability at 0.01 µM: 110%
[8]
  viability at 0.01 µM: 85.6%
Raji [9]
  viability at 0.1 µM: 106%
Raji [10]
  viability at 100 µM: 1.1%
K562 [11]
  viability at 100 µM: 7.5%
[12]
  viability at 100 µM: 1.5%
Raji [13]
  viability at 10 µM: 8.6%
HeLa [14]
  IC50: 2000 nM
HeLa [15]
  viability at 0.01 µM: 97.5%
SiHa [16]
  viability at 50 µM: 3.5%
NCI-H69 [17]
  viability at 10 µM: 37.7%
[18]
  viability at 50 µM: 11.8%
[19]
  viability at 0.01 µM: 121%
K562 [20]
  viability at 10 µM: 22.1%
K562 [21]
  viability at 50 µM: 9.5%
[22]
  viability at 50 µM: 13.8%
K562 [23]
  viability at 0.01 µM: 116%
[24]
  viability at 10 µM: 56.9%
[25]
  IC50: 9000 nM
[26]
  viability at 0.1 µM: 85.6%
Raji [27]
  viability at 50 µM: 2.5%
[28]
  viability at 10 µM: 50.5%
NCI-H69 [29]
  viability at 0.1 µM: 82.2%
NCI-H69 [30]
  viability at 0.01 µM: 86.5%
NCI-H69 [31]
  viability at 100 µM: 6.6%
K562 [32]
  IC50: 1000 nM
HeLa [33]
  viability at 10 µM: 20.2%
NCI-H69 [34]
  viability at 50 µM: 16.8%
SiHa [35]
  viability at 0.1 µM: 72.2%
Daudi
  IC50: 300 nM
HeLa [36]
  viability at 0.1 µM: 81.4%
[37]
  viability at 0.01 µM: 108%
[38]
  viability at 50 µM: 5.8%
HeLa [39]
  viability at 50 µM: 7%
Raji [40]
  IC50: 2000 nM
[41]
  viability at 10 µM: 23.1%
[42]
  IC50: 15000 nM
[43]
  viability at 100 µM: 7.4%
HeLa [44]
  viability at 100 µM: 6.1%
[45]
  viability at 0.1 µM: 96.8%
[46]
  viability at 0.1 µM: 105%
